In US8883228B2, “Composition for heart disease, its active ingredients, method to prepare same and uses thereof” (Tasly Pharmaceutical Group Co. Ltd., priority 2003, dated 2014):

Columns and labels:
vegetative nerve balance = test: Adjustment of vegetative nerve, heart rate variation (HRV); format: in vivo, human; conditions: before and after treatment
From the text: This test uses “Wenger-Chongzhongchongxion” vegetative nerve balance factor analysis to test the heart rate variation (HRV), that is, the fluctuation in the average heartbeat over a certain period of time or over a long time period in the R-R period. Data, including effects on the sympathetic and para-sympathetic nerves can be calculated, to reflect the regulatory function of the vegetative nervous system. […] A decrease in HRV means the sympathetic nerve is excited. It is directly proportional to the symptoms in coronary heart disease and the possibility of sudden death and irregularity of heartbeat. DSP can control over-excitement of the […] nerve and regulate the balance in the vegetative nerve.

[1] = system: angina caused by coronary heart disease; test: Senior group angina, comparative analysis of DSP and Nifedipine; format: in vivo, human; conditions: treatment of angina caused by coronary heart disease
Method: Both DSP and Nifedipine can treat angina caused by coronary heart disease, but the latter has side effects which are not suitable for long-term use. In order to choose suitable drugs for patients with a need for long-term treatment of coronary heart disease, a comparative analysis of DSP and Nifedipine in the treatment of angina caused by coronary heart disease was carried out. DSP is made for angina. It activates blood circulation and relieves pain efficiently. […] Nifedipine is a short-term-effective calcium antagonist with a short half-life and functional time, so angina may occur during medication. […] Many reports state that long-term treatment with Nifedipine is harmful to coronary arteries. DSP can prevent decreased blood flow to the cardiac muscles and the development of atherosclerosis.

[2] = system: chronic pulmonary heart disease; test: Healing effect on chronic pulmonary heart disease; format: in vivo, human; conditions: treatment group versus control group
From the text: The total efficacy rate of treatment group is 95% and that of the control group 76%, the difference of which is statistically significant (P[…]0.05). […] There was a significant difference in the efficacy of the two groups (X^2=4.46 and 4.95, P[…]0.05). […] There were obvious changes in blood flow in the Treatment group before and after treatment compared with that of the Control group (P[…]0.05). The blood viscosity of the control group decreased after treatment, but there was no statistical deviation.

[3] = system: Wistar rat's artificial heart; test: Cardiac arrhythmia caused by exogenous free radicals, Langendorff perfusion; conditions: 1 mg/L; ferrous sulfate/citrate free radicals alone up to 100%
From the text: Langendorff perfusion device was used to pour ferrous sulfate (0.25 mmol/L)/citrate (1.0 mmol/L) into the Wistar rat's artificial heart. The model of free radicals causing heart rhythm irregularity was replicated to observe the effects of DSP.

`O=[N+]([O-])O[C@H]1CO[C@H]2[C@@H]1OC[C@H]2O[N+](=O)[O-]` [Isordil] was tested, and the “SDNN in R-R” value (vegetative nerve balance) was “no significant difference” and the “percentage of y>+0.56 (vegetative nerve balance factor)” value (vegetative nerve balance) was “not significant”.
In the case of `COC(=O)C1=C(C)NC(C)=C(C(=O)OC)C1c1ccccc1[N+](=O)[O-]` [Nifedipine], the side effects [1] is reported as “many side effects”.
Work on `OCCN(CCO)c1nc(N2CCCCC2)c2nc(N(CCO)CCO)nc(N3CCCCC3)c2n1` [persantin] yielded a total efficacy rate [2] of 76%.
With `COc1ccc(CCN(C)CCCC(C#N)(c2ccc(OC)c(OC)c2)C(C)C)cc1OC` (centres unmarked) [verapamil] the “irregularity percentage (cardiac arrhythmia)” value [3] was 71.4%.
